Source: patent EP2698383B1, “Detection of synthetic Cannabinoids” (priority 2012, dated 2014)
Read-outs that look alike come from different tables or passages of the source.

Columns and labels:
Format in all cases: binding, sheep
Antibody 4.1 = test system: Antibody 4.1
Method: (§1) The wells of an enhanced binding 96 well polystyrene microtiter plate were coated with IgG fraction of antiserum (Antibody 4.1 or antibody 4.2) raised to Immunogen 4 in separate host animals, diluted in 10mM Tris, pH8.5 (125µl/well). The appropriate antibody coating dilution was determined using standard ELISA checkerboard techniques. The plate was incubated overnight at 4°C, washed 4 times over 10 minutes with Tris buffered saline containing Tween 20 (TBST) and tapped dry.
(§2) Standard solutions of CP47,497 -C8 were prepared in TBST at 0, 2.5, 5, 10, 20, 40, 80 and 160ng/ml for Antibody 4.1, and at 0, 5, 10, 20, 40, 80, 160 and 320ng/ml for Antibody 4.2, and 50µl of each was added to the appropriate wells. 75µl of conjugate (Hapten 1-HRP - tracer 1 - see Figure 4) diluted in Tris buffer (pH 7.2) containing EDTA, D-mannitol, sucrose, thimerosal and BSA, was added to each of the wells. The appropriate dilution of conjugate was also determined using standard ELISA checkerboard techniques. The plate was incubated at 25°C for 1 hour. Excess unbound conjugate was removed by washing 6 times over a 10 minute period with TBST. 125µl of tetramethylbenzidine (TMB) substrate solution was added to each well of the plate that was then incubated for 20 minutes in the dark at room temperature. The reaction was terminated by addition of 125µl 0.2M H2SO4 to each well. The absorbance was then measured at 450nm using a microtiter plate reader.
(§3) In order to determine the specificity of the competitive ELISAs, standard solutions of a range of structurally similar compounds were prepared in TBST. Using the calibration curves generated and employing a single level of cross reactants (100ng/ml), these were used to determine the cross-reactivity of each immunoassay with these substances. The results of this study are presented in Table 2, as %B/B0, employing antisera raised against Immunogen 2b (C8), tracer 1 (C7) and (±)-CP-47,497 (C8 homologue) as standard.

Antibody 4.2 = test system: Antibody 4.2
Method: as §1, §2, §3

[1] = test system: antibodies raised against immunogen 2b; assay: Competitive ELISA cross-reactivity, for both antibodies; conditions: cross reactants 100ng/ml; tracer 1 (C7); (±)-CP-47,497 (C8 homologue) as standard
Method: as §1, §2, §3

[2] = Cross-reactants at 100ng/ml, tracer 1 (C7), (±)-CP-47,497 (C8 homologue) as standard
[3] = standard 5 ng/ml, tracer 1 (C7)
[4] = standard 10 ng/ml, tracer 1 (C7)
[5] = standard 20 ng/ml, tracer 1 (C7)
[6] = standard 40 ng/ml, tracer 1 (C7)
[7] = standard 80 ng/ml, tracer 1 (C7)
[8] = standard 160 ng/ml, tracer 1 (C7)
[9] = standard concentration which produces 50% B/B0, tracer 1 (C7)

Row | Molecule | %B/B0 [1] | %B/B0 (Antibody 4.1; [2]) | %B/B0 (Antibody 4.2; [2]) | other results
1 | (-)-CP 55,940 | greater than 80% | – | – | %B/B0 (Antibody 4.1): 91.26%; %B/B0 (Antibody 4.2): 97.23%
2 | CCCCCCC(C)(C)c1ccc([C@H]2CCC[C@@H](O)C2)c(O)c1 (racemic) [(±)-CP-47,497 (C7 homologue)] | less than 50% | 37.14% | 48.85% | –
3 | CCCCCc1cc(O)c2c(c1)OC(C)(C)[C@@H]1CCC(C)=C[C@@H]21 [Delta 9 THC] | – | 96.44% | 94.09% | –
4 | (+)-CP 55,940 | greater than 80% | – | – | %B/B0 (Antibody 4.1): 95.98%; %B/B0 (Antibody 4.2): 96.91%
5 | (-)-11-nor-9-Carboxy-delta9-THC | – | – | – | %B/B0 (Antibody 4.1): 95.23%; %B/B0 (Antibody 4.2): 94.38%
6 | CCCCCCC(C)(C)C1=CC(=O)C(C2CCCC(O)C2)=CC1=O (racemic) [(±)-CP-47,497 (C7 para quinone analogue)] | greater than 80% | 82.66% | 89.82% | –
7 | CCCCCCC(C)(C)c1ccc([C@@H]2C[C@H](O)CC[C@H]2CCCO)c(O)c1 (racemic) [(+-)-CP 55,940] | greater than 80% | 93.65% | 97.34% | –
8 | CCCCCCCC(C)(C)c1ccc(C2CCCC(O)C2)c(O)c1 (racemic) [(±)-CP-47,497 (C8 homologue)] | less than 50% | 36.52% | 49.65% | %B/B0 (Antibody 4.1; standard 2.5 ng/ml, tracer 1 (C7)): 82%; %B/B0 (Antibody 4.1; [3]): 72%; %B/B0 (Antibody 4.1; [4]): 60%; %B/B0 (Antibody 4.1; [5]): 51%; %B/B0 (Antibody 4.1; [6]): 43%; %B/B0 (Antibody 4.1; [7]): 38%; %B/B0 (Antibody 4.1; [8]): 34%; IC50 (Antibody 4.1; [9]): 0.020922 µg/mL; %B/B0 (Antibody 4.2; [3]): 88%; %B/B0 (Antibody 4.2; [4]): 82%; %B/B0 (Antibody 4.2; [5]): 72%; %B/B0 (Antibody 4.2; [6]): 63%; %B/B0 (Antibody 4.2; [7]): 52%; %B/B0 (Antibody 4.2; [8]): 44%; %B/B0 (Antibody 4.2; standard 320 ng/ml, tracer 1 (C7)): 37%; IC50 (Antibody 4.2; [9]): 0.095992 µg/mL
9 | CCCCCCC(C)(C)c1cc(OC)c([C@@H]2C=C(CO)[C@@H]3C[C@H]2C3(C)C)c(OC)c1 [HU-308] | – | 98.37% | 94.81% | –
10 | CCCCCCC(C)(C)c1cc(O)c2c(c1)OC(C)(C)[C@@H]1CC=C(CO)C[C@@H]21 [HU-210] | greater than 80% | 96.01% | 92.94% | –
11 | CCCCCCC(C)(C)c1cc(O)c2c(c1)OC(C)(C)[C@H]1CC=C(CO)C[C@H]21 [HU-211 (Dexanabinol), Dexanabinol] | greater than 80% | 96.76% | 95.84% | –
